The source of these data is ChEMBL document CHEMBL1201862, “PubChem BioAssay data set” (2004).

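Briefly, cells in 96-well plates were exposed to five compound concentrations for 48 h, and endpoints were estimated by linear interpolation. The concentration for 50% growth inhibition is given as GI50.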 The source made the active and inactive calls. Rule as the data show it: active = GI50 up to about 1.1 µM and inactive = higher. Some results are limits rather than exact numbers.

Assay in all cases: growth of human tumour cells (NCI), 48 h
The test system of assay [1] is 786-0.
For assay [2], the system named is CAKI-1.
The test system of assay [3] is HCT-15.
Assay [4] relates to HOP-92.
Assay [5] concerns K562.
Assay [6] relates to KM12.
The subject of assay [7] is MOLT-4.
Assay [8] has as its system Malme-3M.
Assay [9] relates to NCI-H460.
Assay [10] deals with NCI-H522.
Assay [11] deals with OVCAR-3.
Assay [12] deals with PC-3.
For assay [13], the system named is RXF 393.
Assay [14] has as its system SF-268.
Assay [15] has as its system SF-539.
Assay [16] concerns SK-MEL-28.
Assay [17] has as its system SN12C.
Assay [18] concerns SNB-19.
Assay [19] deals with SW-620.
Assay [20] concerns U-251.

For the compound `CCOC(=O)c1c(SC(=O)c2ccc(Cl)cc2)n(-c2ccccc2)c(=S)n(-c2ccccc2)c1=O`, the GI50 in [1] was > 100 µM (inactive); in assay [2], > 100 µM (inactive); in [3], more than 100 µM; in [4], > 100 µM (inactive); in assay [5], > 100 µM (inactive); in [6], > 100 µM (inactive). The GI50 in assay [7], in assay [8], in [9], in [10], in assay [11] and in [12] was > 100 µM (inactive) each time. The GI50 in [13], in [14], in assay [15], in assay [16], in [17] and in assay [18] was > 100 µM (inactive) throughout. For the same compound, the GI50 in assay [19] and in assay [20] was > 100 µM (inactive) in each case.

For `C#Cc1cc(Br)c(OC(=O)C(C)(C)C)c(-c2cc(C#C)cc(Br)c2OC(=O)C(C)(C)C)c1`, the GI50 is 41.5 µM (inactive) in assay [1]; 61.8 µM (inactive) in [2]; 32.6 µM in [3]; 36.9 µM (inactive) in [4]; 35.8 µM (inactive) in assay [5]; 37.9 µM (inactive) in assay [6]. For the same compound, the GI50 is 23 µM (inactive) in assay [7]; > 100 µM (inactive) in assay [8]; 42.5 µM (inactive) in assay [9]; 32.5 µM (inactive) in [10]; 80 µM (inactive) in assay [11]; 50.2 µM (inactive) in assay [12]. The GI50 in [13] was 17.4 µM (inactive); in [14], 50 µM (inactive); in [15], 64.6 µM (inactive); in assay [16] it was 61.2 µM (inactive); in [17] it was 53 µM (inactive); in assay [18] it was 43.9 µM (inactive). The GI50 in assay [19] is 27 µM (inactive); in assay [20], 45.1 µM (inactive).

For `O=[N+]([O-])/C(Cl)=C(/C(Cl)=C(Cl)Cl)N1CCOCC1`, the GI50 in assay [1] was 2.92 µM (inactive); in assay [2], 4.34 µM (inactive); in [3], 1.56 µM; in assay [4] it was 2.51 µM (inactive); in [5], 3.18 µM (inactive); in assay [6], 3.34 µM (inactive). Further, the GI50 is 2.58 µM (inactive) in assay [7]; 1.44 µM (inactive) in assay [8]; 4.33 µM (inactive) in [9]; 2 µM (inactive) in assay [10]; 2.13 µM (inactive) in assay [11]; 6.01 µM (inactive) in assay [12]. The GI50 in assay [13] is 2.61 µM (inactive); in [14], 6.41 µM (inactive); in assay [15], 3.12 µM (inactive); in assay [16] it was 11 µM (inactive); in assay [17] it was 7.43 µM (inactive); in assay [18], 17.6 µM (inactive). For the same compound, the GI50 in assay [19] is 2.69 µM (inactive); in assay [20], 10.7 µM (inactive).

In the case of `CCOC(=O)C(C)c1nc2cc(F)c(N3CCOCC3)cc2[nH]c1=O` (stereo not given), the GI50 is > 100 µM (inactive) in assay [1]; > 100 µM (inactive) in assay [2]; more than 100 µM in assay [3]; > 100 µM (inactive) in assay [4]; > 100 µM (inactive) in assay [5]; > 100 µM (inactive) in assay [6]. The GI50 in assay [7] is 85.9 µM (inactive); in [8] it was > 100 µM (inactive); in [9], 39.1 µM (inactive); in assay [10], > 100 µM (inactive); in assay [11], > 100 µM (inactive); in assay [12], 71.9 µM (inactive). For the same compound, the GI50 in assay [13], in assay [14], in assay [15], in assay [16], in assay [17] and in assay [18] was > 100 µM (inactive) each time. Moreover, the GI50 in assay [19] and in assay [20] was > 100 µM (inactive) throughout.

For `CC(C)OC(=O)C1=C2c3ncccc3C(=O)N2[C@@H](Cl)[C@H](Cl)[C@H]1Cl`, the GI50 in [1] was 55.2 µM (inactive); in assay [2] it was > 100 µM (inactive); in assay [3] it was 70.3 µM; in assay [4], 46.3 µM (inactive); in assay [5], 30.5 µM (inactive); in assay [6], > 100 µM (inactive). In addition, the GI50 in assay [7] was 22.5 µM (inactive); in assay [8] it was 28.8 µM (inactive); in assay [9], > 100 µM (inactive); in assay [10], 26.2 µM (inactive); in assay [11], > 100 µM (inactive); in assay [12], 56.6 µM (inactive). Further, the GI50 in assay [13] is > 100 µM (inactive); in assay [14] it was 47.9 µM (inactive); in assay [15], > 100 µM (inactive); in assay [16], > 100 µM (inactive); in assay [17], 21.8 µM (inactive); in assay [18], > 100 µM (inactive). The figures for the GI50 in assay [19] and in assay [20] were 34.6 µM (inactive) and 56.8 µM (inactive), respectively.

With `CC(C)CCn1nc(N)c2nc3ccccc3nc21`, the GI50 in assay [1] was > 100 µM (inactive); in [2], 64.4 µM (inactive); in [3], more than 10 µM; in assay [4] it was > 100 µM (inactive); in assay [5] it was 57.1 µM (inactive); in assay [6], > 100 µM (inactive). Moreover, the GI50 in [7] was 26.3 µM (inactive); in [8], > 100 µM (inactive); in assay [9], 57 µM (inactive); in assay [10] it was > 100 µM (inactive); in assay [11], > 100 µM (inactive); in assay [12], > 100 µM (inactive). The GI50 in assay [13], in [14], in assay [15], in assay [16], in assay [17] and in assay [18] was > 100 µM (inactive) throughout. The GI50 in assay [19] is 67.6 µM (inactive); in [20], > 100 µM (inactive).

Consider `CCOC(=O)C1=CC(C)(C(=O)OCC)Nc2c(nc(OC)n(C)c2=O)N1` (stereo not given), for which the GI50 is > 10 µM (inactive) in [1]; > 10 µM (inactive) in assay [2]; more than 10 µM in assay [3]; > 10 µM (inactive) in [4]; > 10 µM (inactive) in assay [5]; > 10 µM (inactive) in assay [6]. The GI50 in [7], in assay [8], in assay [9], in assay [10], in assay [11] and in [12] was > 10 µM (inactive) in each case. For the same compound, the GI50 in assay [13], in assay [14], in assay [15], in assay [16], in assay [17] and in assay [18] was > 10 µM (inactive) each time. Further, the GI50 in [19] and in [20] was > 10 µM (inactive) in each case.
